Target: T1, 5-HT transporter (Rattus norvegicus, UniProt P31652)
T1 construct: from tissue; host or cells: rat brain (medulla and pons), synaptosomes, P2 fraction
Experiment: 5-HT uptake inhibition, synaptosomes from rat brain (medulla and pons)
Type: biochemical
Source text: b) Method for Determining Noradrenalin and 5-HT Uptake Inhibition:
Synaptosomes from rat brain regions are freshly isolated for in vitro studies, as described in the publication “The isolation of nerve endings from brain” by E. G. Gray and V. P. Whittaker, J. Anatomy 96, pages 79-88, 1962. The corresponding literature description is hereby introduced as a reference and is deemed to be part of the disclosure.
The tissue (hypothalamus for the determination of noradrenalin uptake inhibition and medulla and pons for the determination of 5-HT uptake inhibition) is homogenised in ice-cooled 0.32 M sucrose (100 mg of tissue/1 mL) in a glass homogeniser with Teflon pestle using five complete up and down strokes at 840 revolutions/minute.
The homogenate is centrifuged at 4° C. for 10 minutes at 1000 g. After subsequent centrifugation at 17000 g for 55 minutes, the synaptosomes (P2 fraction) are obtained, which are resuspended in 0.32 M […] (0.5 mL/100 mg of original weight).
The particular uptake is measured in a 96-well microtitre plate. The volume is 250 μL and the incubation proceeds at room temperature (approx. 20-25° C.) under an O2 atmosphere.
The incubation time is 7.5 minutes for [^3H]-NA and 5 minutes for [^3H]-5-HT. The 96 samples are then filtered through a Unifilter GF/B® microtitre plate (Packard) and washed with 200 mL of incubated buffer using a “Brabdel MPXRI-96T Cell-Harvester”. The Unifilter GF/B plate is dried for 1 hour at 55° C. The plate is then sealed with a Back Seal® (Packard) and 35 μL of scintillation fluid are added per well (Ultima Gold®, Packard). After sealing with a top Seal® (Packard) and establishing an equilibrium (around 5 hours), radioactivity is determined in a “Trilux 1450 Microbeta” (Wallac).
The quantity of protein used in the above determination corresponds to the values known from the literature, as for example described in “Protein measurement with the folin phenol reagent”, Lowry et al., J. Biol. Chem., 193, 265-275, 1951.
A detailed description of the method may additionally be found in the literature, for example in M. Ch. Frink, H.-H. Hennies, W. Engelberger, M. Haurand and B. Wilffert (1996) Arzneim.-Forsch./Drug Res. 46 (III), 11, 1029-1036.
The following characteristics were determined for the NA or 5-HT transporter: […]

T1 sequence (P31652 whole entry): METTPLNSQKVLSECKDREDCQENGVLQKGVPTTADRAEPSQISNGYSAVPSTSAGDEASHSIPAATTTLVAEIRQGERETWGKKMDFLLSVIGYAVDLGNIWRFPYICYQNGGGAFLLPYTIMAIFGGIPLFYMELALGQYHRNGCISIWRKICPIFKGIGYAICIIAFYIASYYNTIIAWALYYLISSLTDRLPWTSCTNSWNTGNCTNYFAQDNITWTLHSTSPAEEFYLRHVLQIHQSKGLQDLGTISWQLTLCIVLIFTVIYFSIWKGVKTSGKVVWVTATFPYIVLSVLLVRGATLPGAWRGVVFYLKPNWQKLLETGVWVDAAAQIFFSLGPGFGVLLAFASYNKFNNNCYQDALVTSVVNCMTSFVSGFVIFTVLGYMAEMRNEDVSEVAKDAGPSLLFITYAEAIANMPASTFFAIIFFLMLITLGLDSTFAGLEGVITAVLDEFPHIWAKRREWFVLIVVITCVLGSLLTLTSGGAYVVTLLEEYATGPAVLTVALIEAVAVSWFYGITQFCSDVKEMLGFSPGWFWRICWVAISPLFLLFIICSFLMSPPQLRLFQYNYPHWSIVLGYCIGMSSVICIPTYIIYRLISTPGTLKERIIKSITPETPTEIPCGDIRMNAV

| inhibition at 10 µM | SMILES | 5-HT uptake (rat), 10 μM, % inhibition |
| --- | --- | --- |
| – | COCCNC(=O)c1noc2c1CN(C(=O)Nc1cccc(OC)c1)CC2 [Example 1, 6,7-dihydro-4H-isoxazolo[4,5-c]pyridine-3,5-dicarboxylic acid 3-[(2-methoxy-ethyl) amide] 5-[(3-methoxyphenyl) amide]] | 47% |
| – | O=C(NC1CCCC1)c1noc2c1CN(C(=O)NCc1ccc(F)cc1)CC2 [Example 2, 6,7-dihydro-4H-isoxazolo[4,5-c]pyridine-3,5-dicarboxylic acid 3-cyclopentyl amide 5-(4-fluorobenzyl amide)] | 41% |
| – | O=C(Nc1ccccc1)c1noc2c1CN(C(=O)Nc1ccc(OC(F)(F)F)cc1)CC2 [Example 3, 6,7-dihydro-4H-isoxazolo[4,5-c]pyridine-3,5-dicarboxylic acid 3-phenyl amide 5-[(4-trifluoromethoxy-phenyl) amide]] | 45% |
| – | COCCNC(=O)c1noc2c1CN(C(=O)Nc1ccc(C)c([N+](=O)[O-])c1)CC2 [Example 5, 6,7-dihydro-4H-isoxazolo[4,5-c]pyridine-3,5-dicarboxylic acid 3-[(2-methoxy-ethyl) amide]5-[(4-methyl-3-nitro-phenyl) amide]] | 47% |
| – | CCOC(=O)CCNC(=O)c1noc2c1CN(C(=O)Nc1cc(F)ccc1F)CC2 [Example 6] | 43% |
| – | CCCCOc1ccc(NC(=O)N2CCc3onc(C(=O)NCCOC)c3C2)cc1 [Example 7, 6,7-dihydro-4H-isoxazolo[4,5-c]pyridine-3,5-dicarboxylic acid 5-[(4-butoxy-phenyl) amide] 3-[(2-methoxy-ethyl) amide]] | 44% |
| – | Cc1ccc(NC(=O)N2CCc3onc(C(=O)NCc4cccs4)c3C2)cc1[N+](=O)[O-] [Example 9, 6,7-dihydro-4H-isoxazolo[4,5-c]pyridine-3,5-dicarboxylic acid 5-[(4-methyl-3-nitro-phenyl) amide] 3-[(thiophen-2-ylmethyl) amide]] | 45% |
| – | CCSCCNC(=O)c1noc2c1CN(C(=O)Nc1cccc(OC)c1)CC2 [Example 11, 6,7-dihydro-4H-isoxazolo[4,5-c]pyridine-3,5-dicarboxylic acid 3-[(2-ethylsulfanyl-ethyl) amide]5-[(3-methoxyphenyl) amide]] | 54% |
| – | Cc1ccc(NC(=O)N2CCc3onc(C(=O)NCc4ccc(F)cc4)c3C2)cc1[N+](=O)[O-] [Example 14, 6,7-dihydro-4H-isoxazolo[4,5-c]pyridine-3,5-dicarboxylic acid 3-(4-fluorobenzyl amide) 5-[(4-methyl-3-nitro-phenyl) amide]] | 53% |
| – | CC(=O)c1cccc(NC(=O)N2CCc3onc(C(=O)NCc4ccc(C)o4)c3C2)c1 [Example 15, 6,7-dihydro-4H-isoxazolo[4,5-c]pyridine-3,5-dicarboxylic acid 5-[(3-acetyl-phenyl) amide] 3-[(5-methyl-furan-2-ylmethyl) amide]] | 58% |
| – | C#CCNC(=O)c1noc2c1CN(C(=O)Nc1ccc(C)c([N+](=O)[O-])c1)CC2 [Example 16, 6,7-dihydro-4H-isoxazolo[4,5-c]pyridine-3,5-dicarboxylic acid 5-[(4-methyl-3-nitro-phenyl) amide]3-prop-2-ynyl amide] | 55% |
| – | O=C(NCc1ccccc1)c1noc2c1CN(C(=O)Nc1ccccc1)CC2 [Example 17, 6,7-dihydro-4H-isoxazolo[4,5-c]pyridine-3,5-dicarboxylic acid 3-benzyl amide 5-phenyl amide] | 64% |
| – | C#CCNC(=O)c1noc2c1CN(C(=O)Nc1cccc(F)c1)CC2 [Example 19, 6,7-dihydro-4H-isoxazolo[4,5-c]pyridine-3,5-dicarboxylic acid 5-[(3-fluorophenyl) amide] 3-prop-2-ynyl amide] | 50% |
| 51% | CCOC(=O)CCNC(=O)c1noc2c1CN(C(=O)Nc1cc(OC)ccc1OC)CC2 [Example 20, 3-{[5-(2,5-dimethoxy-phenylcarbamoyl)-4,5,6,7-tetrahydro-isoxazolo[4,5-c]pyridine-3-carbonyl]-amino}-propionic acid ethyl ester] | – |
| – | CCOc1ccc(NC(=O)N2CCc3onc(C(=O)NCc4ccc(F)cc4)c3C2)cc1 [Example 21, 6,7-dihydro-4H-isoxazolo[4,5-c]pyridine-3,5-dicarboxylic acid 5-[(4-ethoxy-phenyl) amide] 3-(4-fluorobenzyl amide)] | 56% |
| – | COc1ccc(Cl)cc1NC(=O)N1CCc2onc(C(=O)NCCc3ccccc3)c2C1 [Example 22, 6,7-dihydro-4H-isoxazolo[4,5-c]pyridine-3,5-dicarboxylic acid 5-[(5-chloro-2-methoxyphenyl) amide] 3-(phenethyl amide)] | 60% |
| – | CCOC(=O)c1cccc(NC(=O)N2CCc3onc(C(=O)NCc4ccc(C)o4)c3C2)c1 [Example 23, 3-({3-[(5-methyl-furan-2-ylmethyl)-carbamoyl]-6,7-dihydro-4H-isoxazolo[4 5-c]pyridine-5-carbonyl}-amino)-benzoic acid ethyl ester] | 52% |
| 54% | CCC(C)(CC(=O)O)CC(=O)N1CCc2onc(C(=O)NCCOC)c2C1 (stereo not shown) [Example 26, 3-ethyl-5-[3-(2-methoxy-ethylcarbamoyl)-6,7-dihydro-4H-isoxazolo[4,5-c]pyridin-5-yl]-3-methyl-5-oxo-pentanoic acid] | – |
| 41% | CC(C)(C)OC(=O)NC(COCc1ccccc1)C(=O)N1CCc2onc(C(=O)NCc3cccnc3)c2C1 (stereo not shown) [Example 27, (1-benzyloxymethyl-2-oxo-2-{3-[(pyridin-3-ylmethyl)-carbamoyl]-6,7-dihydro-4H-isoxazolo[4,5-c]pyridin-5-yl}-ethyl)-carbamic acid tert-butyl ester] | – |
| 57% | O=C(O)COCC(=O)N1CCc2onc(C(=O)NCc3cccs3)c2C1 [Example 30, (2-oxo-2-{3-[(thiophen-2-ylmethyl)-carbamoyl]-6,7-dihydro-4H-isoxazolo[4,5-c]pyridin-5-yl}-ethoxy)acetic acid] | – |
| 57% | Cc1ccc(CNC(=O)c2noc3c2CN(C(=O)C(C)(C)CC(=O)O)CC3)o1 [Example 31, 3,3-dimethyl-4-{3-[(5-methyl-furan-2-ylmethyl)-carbamoyl]-6,7-dihydro-4H-isoxazolo[4,5-c]pyridin-5-yl}-4-oxo-butanoic acid] | – |
| – | O=C(c1noc2c1CN(S(=O)(=O)c1ccc(F)cc1)CC2)N1CCN(c2ncnc3sccc23)CC1 [Example 34] | 74% |
| 72% | CN(C)CCNC(=O)c1noc2c1CN(C(=O)C=Cc1ccccc1)CC2 [Example 36, 5-(3-phenyl-acryloyl)-4,5,6,7-tetrahydro-isoxazolo[4,5-c]pyridine-3-carboxylic acid (2-dimethylamino-ethyl) amide] | – |
| 61% | CN(C)CCNC(=O)c1noc2c1CN(C(=O)COc1ccccc1)CC2 [Example 37, 5-(2-phenoxy-acetyl)-4,5,6,7-tetrahydro-isoxazolo[4,5-c]pyridine-3-carboxylic acid (2-dimethylamino-ethyl) amide] | – |
| 76% | CN(C)CCNC(=O)c1noc2c1CN(C(=O)c1cc(C(C)(C)C)nn1C)CC2 [Example 41, 5-(5-tert-butyl-2-methyl-2H-pyrazole-3-carbonyl)-4,5,6,7-tetrahydro-isoxazolo[4,5-c]pyridine-3-carboxylic acid (2-dimethylamino-ethyl) amide] | – |
| 85% | CC(=O)Nc1ccc(C(=O)N2CCc3onc(C(=O)NCC4CC4)c3C2)cc1 [Example 45, 5-(4-acetylamino-benzoyl)-4,5,6,7-tetrahydro-isoxazolo[4,5-c]pyridine-3-carboxylic acid cyclopropylmethyl amide] | – |
| 79% | Cc1nn(-c2ccccc2)nc1C(=O)N1CCc2onc(C(=O)NCc3cccnc3)c2C1 [Example 46, 5-(5-methyl-2-phenyl-2H-[1,2,3]triazole-4-carbonyl)-4,5,6,7-tetrahydro-isoxazolo[4,5-c]pyridine-3-carboxylic acid (pyridin-3-ylmethyl) amide] | – |

| SMILES | inhibition at 10 µM | 5-HT uptake (rat), 10 μM, % inhibition |
| --- | --- | --- |
| O=C(c1noc2c1CN(S(=O)(=O)c1ccc(F)cc1)CC2)N1CC=C(c2ccc(F)cc2)CC1 [Example 42, [5-(4-fluoro-benzenesulfonyl)-4,5,6,7-tetrahydro-isoxazolo[4,5-c]pyridin-3-yl]-[4-(4-fluorophenyl)-3,6-dihydro-2H-pyridin-1-yl]-methanone] | 69% | – |

Source: US8048879B2, “Substituted 4,5,6,7-tetrahydro-isoxazolo[4,5-c]pyridine compounds and use thereof for producing medicaments” (Gruenenthal GmbH, priority 2005, dated 2011)
